From patent US10752587B2, “Homobispiperidinyl derivatives as liver X receptor beta agonists, compositions and their use” (Merck Sharp & Dohme Corp., priority 2015, dated 2020)
Where two headings read alike, the source gives them in different places.

Tests used:
[1] = target: T1, glutathione-S-transferase (GST) tagged LXRbeta LBD (ligand binding domain) (Homo sapiens, UniProt P55055); assay: LanthaScreen TR-FRET Liver X Receptor Coactivator Assay, co-activator recruitment to LXRbeta LBD; format: biochemical
T1 construct: purchased Invitrogen pv4658.pps
T1 sequence (P55055 222-460 limits assumed): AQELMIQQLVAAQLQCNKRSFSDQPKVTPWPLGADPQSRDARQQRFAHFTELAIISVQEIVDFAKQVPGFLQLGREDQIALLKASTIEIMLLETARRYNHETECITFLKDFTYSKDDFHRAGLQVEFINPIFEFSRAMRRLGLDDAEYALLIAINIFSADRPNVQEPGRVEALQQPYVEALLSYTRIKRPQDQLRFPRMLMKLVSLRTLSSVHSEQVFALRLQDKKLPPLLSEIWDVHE
How it was run: (§1)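 GST-tagged LBD added to test compound, then fluorescein-labelled coactivator peptide plus terbium anti-GST antibody; incubated at room temperature, TR-FRET read. Potency given as inflection point and efficacy as Emax relative to reference dual agonist T0901317.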

[2] = target: T2, glutathione-S-transferase (GST) tagged LXRalpha LBD (ligand binding domain) (Homo sapiens, UniProt Q13133); assay: LanthaScreen TR-FRET Liver X Receptor Coactivator Assay, co-activator recruitment to LXRalpha LBD; format: biochemical
T2 construct: purchased Invitrogen pv4655
T2 sequence (Q13133 209-447 limits assumed): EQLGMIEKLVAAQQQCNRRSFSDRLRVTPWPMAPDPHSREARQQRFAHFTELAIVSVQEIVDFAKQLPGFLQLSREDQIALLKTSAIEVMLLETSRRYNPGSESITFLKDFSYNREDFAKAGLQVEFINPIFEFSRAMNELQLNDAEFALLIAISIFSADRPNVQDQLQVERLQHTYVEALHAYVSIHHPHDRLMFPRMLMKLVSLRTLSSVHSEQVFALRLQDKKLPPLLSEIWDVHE
How it was run: as §1

[3] = efficacy at max dose, in relation to reference dual agonist T0901317, read-out: LXR beta Activity @ max dose (%)
[4] = potency (Inflection Point, IP), co-activator recruitment to LXRbeta LBD, in relation to T0901317, read-out: LXR beta IP
[5] = efficacy at max dose, in relation to reference dual agonist T0901317, read-out: LXR alpha Activity @ max dose (%)
[6] = potency (Inflection Point, IP), co-activator recruitment to LXRalpha LBD, in relation to T0901317
[7] = potency (Inflection Point, IP), co-activator recruitment to LXRalpha LBD, in relation to T0901317, read-out: LXR alpha IP
[8] = efficacy at max dose, in relation to reference dual agonist T0901317

## CN(C)C(=O)c1ccc(N2CCC(CC3CCN(C(=O)[C@](O)(c4cc(Cl)cc(Cl)c4)C(F)(F)F)CC3)CC2)cc1 [Example 2-133, 4-[4-({1-[(2R)-2-(3,5-dichloro-phenyl)-3,3,3-trifluoro-2-hydroxy-propanoyl]piperidin-4-yl}methyl)piperidin-1-yl]-N,N-dimethyl-benzamide]
[1]; [3]
  Emax: 54%
[1]; [4]
  EC50: 36 nM
[2]; [5]
  Emax: 6%
[2]; [6]
  LXR alpha IP (nM): NO IP

## CNC(=O)c1ccc(N2CCC(OC3CCN(C(=O)[C@](O)(c4ccccc4)C(F)(F)F)CC3)CC2)cc1Cl [Example 7-26, 2-chloro-N-methyl-4-[4-({1-[(2R)-3,3,3-trifluoro-2-hydroxy-2-phenylpropanoyl]piperidin-4-yl}oxy)piperidin-1-yl]benzamide]
[1]; [3]
  Emax: 115%
[1]; [4]
  EC50: 125 nM
[2]; [5]
  Emax: 35%
[2]; [7]
  EC50: 2260 nM

## COc1cccc([C@@](O)(C(=O)N2CCC(CC3CCN(c4ccc(C(=O)N(C)C)c(Cl)c4)CC3)CC2)C(C)C)c1 [Example 2-115, 2-chloro-4-[4-({1-[(2R)-2-hydroxy-2-(3-methoxy-phenyl)-3-methyl-butanoyl]piperidin-4-yl}methyl)piperidin-1-yl]-N,N-dimethyl-benzamide]
[1]; [3]
  Emax: 30%
[1]; [4]
  EC50: 53 nM
[2]; [5]
  Emax: 0%
[2]; [6]
  LXR alpha IP (nM): NO IP

## CCOc1cccc([C@@](O)(C(=O)N2CCC(CC3(C)CCN(c4ccc(C(=O)N(C)C)c(OC)n4)CC3)CC2)C(F)(F)F)c1 [Example 7-24]
[1]; [3]
  Emax: 106%
[1]; [4]
  EC50: 92 nM
[2]; [5]
  Emax: 7%
[2]; [6]
  LXR alpha IP (nM): NO IP

## CN(C)C(=O)c1ccc(N2CCC(CC3CCN(C(=O)[C@](O)(c4ccccc4)C(F)(F)C(F)(F)F)CC3)CC2)cc1Cl [Example 2-13, 2-chloro-N,N-dimethyl-4-[4-({1-[(2R)-3,3,4,4,4-pentafluoro-2-hydroxy-2-phenylbutanoyl]piperidin-4-yl}methyl)piperidin-1-yl]benzamide]
[1]; [8]
  LXR beta Activity @ max dose (%): 119%
[2]; [8]
  LXR alpha Activity @ max dose (%): 56%
[2]; [7]
  EC50: 177 nM

## Cc1cc(N2CCC(CC3CCN(C(=O)[C@](O)(c4cccc(C(F)(F)F)c4)C(F)(F)F)CC3)CC2)ccc1C(=O)N(C)C [Example 2-148, N,N,2-trimethyl-4-{4-[(1-{(2R)-3,3,3-trifluoro-2-hydroxy-2-[3-(trifluoromethyl)phenyl]propanoyl}piperidin-4-yl)methyl]piperidin-1-yl}benzamide]
[1]; [3]
  Emax: 62%
[1]; [4]
  EC50: 24 nM
[2]; [5]
  Emax: 22%
[2]; [7]
  EC50: 400 nM

## CN(C)C(=O)c1ccc(N2CCC(CC3CCN(C(=O)C(O)(c4cccc(F)c4)C(F)F)CC3)CC2)cc1Cl (stereo not shown) [Example 2-122, 2-chloro-4-[4-({1-[3,3-difluoro-2-(3-fluorophenyl)-2-hydroxy-propanoyl]piperidin-4-yl}methyl)piperidin-1-yl]-N,N-dimethyl-benzamide]
[1]; [3]
  Emax: 69%
[1]; [4]
  EC50: 27 nM
[2]; [5]
  Emax: 29%
[2]; [7]
  EC50: 543 nM

## CN(C)C(=O)c1ccc(N2CCC(CC3CCN(C(=O)[C@@](O)(c4cccc(C(F)(F)F)c4)C(F)(F)F)CC3)CC2)cc1Cl [Example 2-33, 2-chloro-N,N-dimethyl-4-{4-[(1-{(2S)-3,3,3-trifluoro-2-hydroxy-2-[3-(trifluoromethyl)phenyl]propanoyl}piperidin-4-yl)methyl]piperidin-1-yl}benzamide]
[1]; [3]
  Emax: 75%
[1]; [4]
  EC50: 722 nM
[2]; [5]
  Emax: 5%
[2]; [6]
  LXR alpha IP (nM): NO IP

## Cc1nc(N2CCC(CC3CCN(C(=O)[C@](O)(c4ccccc4)C(F)(F)F)CC3)CC2)ccc1C(=O)N(C)C [Example 7-1, (R)—N,N,2-trimethyl-6-(4-((1-(3,3,3-trifluoro-2-hydroxy-2-phenylpropanoyl)piperidin-4-yl)methyl)piperidin-1-yl)nicotinamide]
[1]; [3]
  Emax: 80%
[1]; [4]
  EC50: 19 nM
[2]; [5]
  Emax: 35%
[2]; [7]
  EC50: 895 nM

## CN(C)C(=O)c1ccc(N2CCC(CC3CCN(C(=O)[C@](O)(c4cccc(Cl)c4)C(F)(F)F)CC3)CC2)cc1Cl [Example 2-86, 2-chloro-4-[4-({1-[(2R)-2-(3-chloro-phenyl)-3,3,3-trifluoro-2-hydroxy-propanoyl]piperidin-4-yl}methyl)piperidin-1-yl]-N,N-dimethyl-benzamide]
[1]; [3]
  Emax: 68%
[1]; [4]
  EC50: 6 nM
[2]; [5]
  Emax: 22%
[2]; [7]
  EC50: 98 nM

## Cc1cc(N2CCC(CC3CCN(C(=O)[C@](O)(c4ccccc4)C(F)(F)F)CC3)CC2)ccc1C(=O)N(C)C [Example 2-155, N,N,2-trimethyl-4-[4-({1-[(2R)-3,3,3-trifluoro-2-hydroxy-2-phenyl-propanoyl]piperidin-4-yl}methyl)piperidin-1-yl]benzamide]
[1]; [3]
  Emax: 69%
[1]; [4]
  EC50: 25 nM
[2]; [5]
  Emax: 33%
[2]; [7]
  EC50: 386 nM

## CN(C)C(=O)c1ccc(N2CCC(CC3CCN(C(=O)[C@](O)(c4cccc(C(F)(F)F)c4)C(F)(F)F)CC3)CC2)nc1Cl [Example 7-87, 2-chloro-N,N-dimethyl-6-{4-[(1-{(2R)-3,3,3-trifluoro-2-hydroxy-2-[3-(trifluoromethyl)phenyl]propanoyl}piperidin-4-yl)methyl]piperidin-1-yl}pyridine-3-carboxamide]
[1]; [3]
  Emax: 69%
[1]; [4]
  EC50: 7 nM
[2]; [5]
  Emax: 23%
[2]; [7]
  EC50: 252 nM

## CN(C)C(=O)c1ccc(N2CCC(CC3CCN(C(=O)C(O)(c4ccccc4)C4CCCCC4)CC3)CC2)nc1Cl (stereo not shown) [Example 7-100, 2-chloro-6-[4-({1-[cyclohexyl(hydroxy)phenylacetyl]piperidin-4-yl}methyl)piperidin-1-yl]-N,N-dimethylpyridine-3-carboxamide]
[1]; LXR beta IP (nM), potency (Inflection Point, IP), co-activator recruitment to LXRbeta LBD, in relation to T0901317
  EC50: 200 nM
[1]; read-out: LXR beta Activity @ max dose (%)
  Emax: 37%
[2]; [6]
  LXR alpha IP (nM): NO IP
[2]; read-out: LXR alpha Activity @ max dose (%)
  Emax: 4%

## O=C(c1ccc(N2CCC(CC3CCN(C(=O)[C@](O)(c4ccccc4)C(F)(F)F)CC3)CC2)cc1Cl)N1CC[C@H](F)C1 [Example 4-18]
[1]; [3]
  Emax: 67%
[1]; [4]
  EC50: 59 nM
[2]; [5]
  Emax: 39%
[2]; [7]
  EC50: 485 nM

## CNC(=O)c1ccc(N2CCC(CC3CCN(C(=O)C(O)(c4cccc(C)c4)C(F)(F)F)CC3)CC2)cc1Cl (stereo not shown) [Example 7-36, 2-chloro-N-methyl-4-[4-({1-[3,3,3-trifluoro-2-hydroxy-2-(3-methylphenyl)propan-oyl]piperidin-4-yl}methyl)piperidin-1-yl]benzamide]
[1]; [3]
  Emax: 65%
[1]; [4]
  EC50: 28 nM
[2]; [5]
  Emax: 19%
[2]; [7]
  EC50: 762 nM

## CN(C)C(=O)c1ccc(N2CCC(CC3CCN(S(=O)(=O)c4cccc(F)c4)CC3)CC2)cc1Cl [Example 13-7, 2-chloro-4-[4-({1-[(3-fluorophenyl)sulfonyl]-piperidin-4-yl}methyl)-piperidin-1-yl]-N,N-dimethylbenzamide]
[1]; co-activator recruitment to GST-LXRbeta LBD, TR-FRET, read-out: LXR beta IP (Inflection Point, potency)
  EC50: 60 nM
[1]; efficacy in relation to reference dual agonist T0901317, read-out: LXR beta Activity @ max dose
  Emax: 67%
[2]; co-activator recruitment to GST-LXRalpha LBD, TR-FRET, read-out: LXR alpha IP (Inflection Point, potency)
  EC50: 1190 nM
[2]; efficacy in relation to reference dual agonist T0901317, read-out: LXR alpha Activity @ max dose
  Emax: 25%

## CN(C(=O)c1ccc(N2CCC(CC3CCN(C(=O)[C@](O)(c4ccccc4)C(F)(F)F)CC3)CC2)cc1Cl)C1CC1 [Example 4-11, 2-chloro-N-cyclopropyl-N-methyl-4-[4-({1-[(2R)-3,3,3-trifluoro-2-hydroxy-2-phenylpropanoyl]piperidin-4-yl}methyl)piperidin-1-yl]benzamide]
[1]; [3]
  Emax: 74%
[1]; [4]
  EC50: 43 nM
[2]; [5]
  Emax: 38%
[2]; [7]
  EC50: 402 nM
